≈ marks a conversion by molar mass, not a printed value. Like-named read-outs stand apart in the source and are kept apart here.
Experiments:
[1] = tested on: rapid-growing mycobacteria (RGM) isolates; assay: MIC (CLSI broth dilution), all RGM isolates; format: cell-based, nontuberculous mycobacteria; settings: all 50 RGM isolates
M. abscessus complex = assay: MIC (CLSI broth dilution), RGM isolates; format: cell-based; settings: Mycobacteroides abscessus, read-out: MIC
M. chelonae = assay: MIC (CLSI broth dilution), RGM isolates; format: cell-based; settings: Mycobacteroides chelonae, read-out: MIC
M. fortuitum group = assay: MIC (CLSI broth dilution), RGM isolates; format: cell-based; settings: Mycolicibacterium fortuitum, read-out: MIC
M. immunogenum group = assay: MIC (CLSI broth dilution), RGM isolates; format: cell-based; settings: M. immunogenum, read-out: MIC
M. mucogenium group = assay: MIC (CLSI broth dilution), RGM isolates; format: cell-based; settings: read-out: MIC
M. smegmatis group = assay: MIC (CLSI broth dilution), RGM isolates; format: cell-based; settings: Mycolicibacterium smegmatis, read-out: MIC
M. arupense = assay: MIC (CLSI broth dilution), slow-growing NTM isolates; format: cell-based; settings: isolate 11, Other; read-out: MIC
M. simiae = assay: as above; format: cell-based; settings: read-out: MIC
[2] = isolate 36, M. immunogenum group
[3] = isolate 37, M. immunogenum group
[4] = isolate 38, M. immunogenum group

SMILES: CO[C@@]1(NC(=O)Cc2cccs2)C(=O)N2C(C(=O)O)=C(COC(N)=O)CS[C@@H]21 [FOX, cefoxitin]
- MIC50 ([1]; read-out: MIC50): 32 µg/mL (≈ 74.9 µM)
- MIC90 ([1]; read-out: MIC90): > 64 µg/mL
- MIC (M. abscessus complex; isolate 1, M. abscessus complex, erm gene type MAB30): 32 µg/mL (≈ 74.9 µM)
- MIC (M. abscessus complex; isolate 2, M. abscessus complex, erm gene type MAB30): 32 µg/mL (≈ 74.9 µM)
- MIC (M. abscessus complex; isolate 3, M. abscessus complex, erm gene type MAB30): 32 µg/mL (≈ 74.9 µM)
- MIC (M. abscessus complex; isolate 4, M. abscessus complex, erm gene type massiliense): 32 µg/mL (≈ 74.9 µM)
- MIC (M. abscessus complex; isolate 5, M. abscessus complex, erm gene type massiliense/subsp. abs hybrid): 32 µg/mL (≈ 74.9 µM)
- MIC (M. abscessus complex; isolate 6, M. abscessus complex, erm gene type Type 1 abscessus): 32 µg/mL (≈ 74.9 µM)
- MIC (M. abscessus complex; isolate 7, M. abscessus complex, erm gene type Type 1 abscessus): 32 µg/mL (≈ 74.9 µM)
- MIC (M. abscessus complex; isolate 8, M. abscessus complex, erm gene type Type 1 abscessus): 32 µg/mL (≈ 74.9 µM)
- MIC (M. abscessus complex; isolate 9, M. abscessus complex, erm gene type Type 1 abscessus): 32 µg/mL (≈ 74.9 µM)
- MIC (M. abscessus complex; isolate 10, M. abscessus complex, erm gene type Type 1 abscessus): 32 µg/mL (≈ 74.9 µM)
- MIC (M. abscessus complex; isolate 11, M. abscessus complex, erm gene type Type 6 abscessus): 32 µg/mL (≈ 74.9 µM)
- MIC (M. abscessus complex; isolate 12, M. abscessus complex, erm gene type Type 6 abscessus): 32 µg/mL (≈ 74.9 µM)
- MIC (M. abscessus complex; isolate 13, M. abscessus complex, erm gene type Type 6 abscessus): 32 µg/mL (≈ 74.9 µM)
- MIC (M. abscessus complex; isolate 14, M. abscessus complex, erm gene type Type 6 abscessus): 64 µg/mL (≈ 150 µM)
- MIC (M. abscessus complex; isolate 15, M. abscessus complex, erm gene type Type 7 abscessus): 32 µg/mL (≈ 74.9 µM)
- MIC (M. abscessus complex; isolate 16, M. abscessus complex, erm gene type Type 7 abscessus): 32 µg/mL (≈ 74.9 µM)
- MIC (M. abscessus complex; isolate 17, M. abscessus complex, erm gene type Type 8 abscessus): 32 µg/mL (≈ 74.9 µM)
- MIC (M. chelonae; isolate 18, M. chelonae): > 64 µg/mL
- MIC (M. chelonae; isolate 19, M. chelonae): > 64 µg/mL
- MIC (M. chelonae; isolate 20, M. chelonae): > 64 µg/mL
- MIC (M. chelonae; isolate 21, M. chelonae): > 64 µg/mL
- MIC (M. chelonae; isolate 22, M. chelonae): > 64 µg/mL
- MIC (M. fortuitum group; isolate 23, M. fortuitum group, M. fortuitum): 32 µg/mL (≈ 74.9 µM)
- MIC (M. fortuitum group; isolate 24, M. fortuitum group, M. fortuitum): > 64 µg/mL
- MIC (M. fortuitum group; isolate 25, M. fortuitum group, M. fortuitum): 32 µg/mL (≈ 74.9 µM)
- MIC (M. fortuitum group; isolate 26, M. fortuitum group, M. porcinum): 32 µg/mL (≈ 74.9 µM)
- MIC (M. fortuitum group; isolate 27, M. fortuitum group, M. porcinum): 32 µg/mL (≈ 74.9 µM)
- MIC (M. fortuitum group; isolate 28, M. fortuitum group, M. porcinum/M. boenickei): 32 µg/mL (≈ 74.9 µM)
- MIC (M. fortuitum group; isolate 29, M. fortuitum group, M. porcinum/M. boenickei): 32 µg/mL (≈ 74.9 µM)
- MIC (M. fortuitum group; isolate 30, M. fortuitum group, M. porcinum/M. boenickei): ≤ 16 µg/mL
- MIC (M. fortuitum group; isolate 31, M. fortuitum group, M. senegalense): 32 µg/mL (≈ 74.9 µM)
- MIC (M. fortuitum group; isolate 32, M. fortuitum group, M. senegalense): 32 µg/mL (≈ 74.9 µM)
- MIC (M. fortuitum group; isolate 33, M. fortuitum group, M. senegalense): < 16 µg/mL
- MIC (M. fortuitum group; isolate 34, M. fortuitum group, M. senegalense): 32 µg/mL (≈ 74.9 µM)
- MIC (M. immunogenum group; isolate 35, M. immunogenum group): > 64 µg/mL
- MIC (M. immunogenum group; [2]): > 64 µg/mL
- MIC (M. immunogenum group; [3]): > 64 µg/mL
- MIC (M. immunogenum group; [4]): > 64 µg/mL
- MIC (M. mucogenium group; isolate 39, M. mucogenicum group, M. mucogenicum): ≤ 16 µg/mL
- MIC (M. mucogenium group; isolate 40, M. mucogenicum group, M. mucogenicum): ≤ 16 µg/mL
- MIC (M. mucogenium group; isolate 41, M. mucogenicum group, M. mucogenicum): ≤ 16 µg/mL
- MIC (M. mucogenium group; isolate 42, M. mucogenicum group, M. mucogenicum): ≤ 16 µg/mL
- MIC (M. mucogenium group; isolate 43, M. mucogenicum group, M. phocaicum): ≤ 16 µg/mL
- MIC (M. mucogenium group; isolate 44, M. mucogenicum group, M. phocaicum): ≤ 16 µg/mL
- MIC (M. mucogenium group; isolate 45, M. mucogenicum group, M. phocaicum): ≤ 16 µg/mL
- MIC (M. mucogenium group; isolate 46, M. mucogenicum group, M. phocaicum): ≤ 16 µg/mL
- MIC (M. mucogenium group; isolate 47, M. mucogenicum group, M. phocaicum): ≤ 16 µg/mL
- MIC (M. mucogenium group; isolate 48, M. mucogenicum group, M. phocaicum): ≤ 16 µg/mL
- MIC (M. smegmatis group; isolate 49, M. smegmatis group, M. goodii): > 64 µg/mL
- MIC (M. smegmatis group; isolate 50, M. smegmatis group, M. wolinskyi): 64 µg/mL (≈ 150 µM)

SMILES: CO[C@H]1/C=C/O[C@@]2(C)Oc3c(C)c(O)c4c(c3C2=O)C2=NC3(CCN(CC(C)C)CC3)NC2=C(NC(=O)/C(C)=C\C=C\[C@H](C)[C@H](O)[C@@H](C)[C@@H](O)[C@@H](C)[C@H](OC(C)=O)[C@@H]1C)C4=O [RFB, rifabutin]
- MIC (M. arupense): ≤ 0.25 µg/mL
- MIC (M. simiae; isolate 13, Other): ≤ 0.25 µg/mL
- MIC (M. simiae; isolate 14, Other): > 2 µg/mL
- MIC (M. simiae; isolate 15, Other): > 2 µg/mL

SMILES: NC[C@H]1O[C@H](O[C@H]2[C@H](O)[C@@H](O[C@H]3O[C@H](CO)[C@@H](O)[C@H](N)[C@H]3O)[C@H](N)C[C@@H]2N)[C@H](N)C[C@@H]1O [TOB, tobramycin]
- MIC (M. chelonae; isolate 18, M. chelonae): ≤ 2 µg/mL
- MIC (M. chelonae; isolate 19, M. chelonae): ≤ 2 µg/mL
- MIC (M. chelonae; isolate 20, M. chelonae): ≤ 2 µg/mL
- MIC (M. chelonae; isolate 21, M. chelonae): ≤ 2 µg/mL
- MIC (M. chelonae; isolate 22, M. chelonae): ≤ 2 µg/mL
- MIC (M. immunogenum group; [2]): 8 µg/mL (≈ 17.1 µM)
- MIC (M. immunogenum group; [3]): > 8 µg/mL
- MIC (M. immunogenum group; [4]): > 8 µg/mL

Reference: patent US20250332178A1, “METHODS OF TREATING MYCOBACTERIAL INFECTIONS USING TETRACYCLINE COMPOUNDS” (priority 2018, published 2025)
